Test system: HPA axis
Assay: 24-hour urinary cortisol excretion as a measure of HPA suppression
Assay type: in vivo, human
Settings: 24 h post-dose urine, single dose, healthy subjects
Excerpt: The below examples are used to exemplify the present invention and are in no way meant to narrow the scope of the invention. The examples compare the systemic pharmacokinetic and pharmacodynamic of a MDI made up of two drugs, namely, salmeterol and fluticasone propionate combined in a HFA propellant, namely 134a, with individual salmeterol and fluticasone propionate MDIs in a CFC propellant administered individually and with placebo (HFA 134a propellant alone). Healthy human subjects were given either salmeterol and fluticasone propionate in HFA 134a propellant, salmeterol in P11/P12, fluticasone propionate in P11/P12, or a placebo in HFA 134a propellant, in a randomized, single dose, crossover study. Potential side effects such as increased heart rate and QTc interval were measured. The levels of cortisol in the urine were also measured as a measure of HPA suppression. Twenty healthy human subjects were randomized into one of four treatment groups. […] Cortisol levels were determined from 500 μl of urine by automated immunochemiluminescence on the ASC-180 (Bayer Diagnostics) following preliminary extraction of the urine with dichloromethane. […] For untransformed parameters, the 90% (or 95%) confidence interval for the difference in least squares means was expressed as a ratio of the individual mean.

`CCC(=O)O[C@]1(C(=O)SCF)[C@H](C)C[C@H]2[C@@H]3C[C@H](F)C4=CC(=O)C=C[C@]4(C)[C@@]3(F)[C@@H](O)C[C@@]21C` [fluticasone propionate, S-(fluoromethyl)6α,9-difluro-11β,17-dihydroxy-16α-methyl-3-oxoandrosta-1,4-diene-17β-carbothioate,17-propionate] was tested. Which “post-treatment geometric mean urinary cortisol excreted” value did it give?
The value was 18.5 µg.
